Earlier results on two compounds are cited in patent US6464987B1, “Pharmaceutical compositions capable of being gelled” (UCB, S.A., priority 1998, dated 2002).

As usually defined, the bioavailability is the share of a dose that reaches the circulation, judged against a reference dose that is usually intravenous.

For data set [1] the following is noted: mouse, in vivo.
Another data set concerns humans. The following applies: PLA-GA implants or PLA-GA microparticles.

Read-outs that look alike come from different tables or passages of the source.

Regarding `NC(=O)[C@@H]1CCCN1C(=O)[C@H](Cc1cnc[nH]1)NC(=O)[C@@H]1CCC(=O)N1` [TRH, thyrotropin releasing hormone], the bioavailability in data set [1] (im) is 31.4%; in data set [1] (sc), 67.5%.
As to `CC(C)C[C@H](NC(=O)[C@@H](COC(C)(C)C)NC(=O)[C@H](Cc1ccc(O)cc1)NC(=O)[C@H](CO)NC(=O)[C@H](Cc1c[nH]c2ccccc12)NC(=O)[C@H](Cc1cnc[nH]1)NC(=O)[C@@H]1CCC(=O)N1)C(=O)N[C@@H](CCCNC(=N)N)C(=O)N1CCC[C@H]1C(=O)NNC(N)=O` [gosereline], in the data set on humans, the “level of testosterone in the blood” value is “very significant and lasting decrease”.
